Experiments:
Assay type in all cases: in vivo
[1] = system: Italian ryegrass (Lolium multiflorum); assay: Test C pre-/postemergence plant response
Method in brief: (§1)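 Test chemicals in a non-phytotoxic solvent with surfactant were applied preemergence, and some were also applied postemergence to plants 2–18 cm tall (1- to 4-leaf stage). Visual ratings against controls were made after 15–25 days in a controlled environment, on a 0–100 scale where 100 means complete control.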

[2] = system: winter barley (Hordeum vulgare); assay: Test C pre-/postemergence plant response
Method in brief: as §1

[3] = system: wild mustard (Sinapis arvensis); assay: Test C pre-/postemergence plant response
Method in brief: as §1

[4] = system: downy bromegrass (Bromus tectorum); assay: Test C pre-/postemergence plant response
Method in brief: as §1

[5] = system: annual bluegrass (Poa annua); assay: Test C pre-/postemergence plant response
Method in brief: as §1

[6] = system: wild oat (Avena fatua); assay: Test C pre-/postemergence plant response
Method in brief: as §1

[7] = system: canarygrass (Phalaris minor); assay: Test C pre-/postemergence plant response
Method in brief: as §1

[8] = system: winter wheat (Triticum aestivum); assay: Test C pre-/postemergence plant response
Method in brief: as §1

[9] = system: blackgrass (Alopecurus myosuroides); assay: Test C pre-/postemergence plant response
Method in brief: as §1

[10] = system: windgrass (Apera spica-venti); assay: Test C pre-/postemergence plant response
Method in brief: as §1

[11] = system: green foxtail (Setaria viridis); assay: Test C pre-/postemergence plant response
Method in brief: as §1

[12] = system: spring barley (Hordeum vulgare); assay: Test C pre-/postemergence plant response
Method in brief: as §1

[13] = system: large crabgrass (Digitaria sanguinalis); assay: Test A pre-/postemergence plant response
Method in brief: (§2)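 Seeds in loam soil/sand blend treated preemergence by directed soil spray, with simultaneous postemergence spray on 2–10 cm plants at one- to two-leaf stage; compounds in non-phytotoxic solvent with surfactant. Injury visually rated versus untreated controls after about 10 days in greenhouse, 0 (no effect) to 100 (complete control).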

[14] = system: velvetleaf (Abutilon theophrasti); assay: Test A pre-/postemergence plant response
Method in brief: as §2

[15] = system: giant foxtail (Setaria faberi); assay: Test A pre-/postemergence plant response
Method in brief: as §2

[16] = Postemergence, 8 g ai/ha, scale 0 to 100, 0 no effect, 100 complete control
[17] = Postemergence, 16 g ai/ha, scale 0 to 100, 0 no effect, 100 complete control
[18] = Postemergence, 31 g ai/ha, scale 0 to 100, 0 no effect, 100 complete control
[19] = Postemergence, 62 g ai/ha, scale 0 to 100, 0 no effect, 100 complete control
[20] = Preemergence, 8 g ai/ha, scale 0 to 100 (0 no effect, 100 complete control)
[21] = Preemergence, 16 g ai/ha, scale 0 to 100 (0 no effect, 100 complete control)
[22] = Preemergence, 31 g ai/ha, scale 0 to 100 (0 no effect, 100 complete control)
[23] = Preemergence, 62 g ai/ha, scale 0 to 100, 0 no effect, 100 complete control
[24] = Postemergence, 31 g ai/ha, 0 to 100 scale, 0 no effect, 100 complete control
[25] = Postemergence, 125 g ai/ha, 0 to 100 scale, 0 no effect, 100 complete control
[26] = Preemergence, 31 g ai/ha, 0 to 100 scale, 0 is no effect, 100 is complete control
[27] = Preemergence, 125 g ai/ha, 0 to 100 scale (0 no effect, 100 complete control)

## CCCc1cc(-c2ccc(Cl)cc2)nn1-c1c(O)cnn(C)c1=O [Compound 43]
[1]; [16]
  Plant response rating, Ryegrass, Italian: 75
[1]; [17]
  Plant response rating, Ryegrass, Italian: 98
[1]; [18]
  Plant response rating, Ryegrass, Italian: 100
[1]; [19]
  Plant response rating, Ryegrass, Italian: 100
[1]; [20]
  Plant response rating, Ryegrass, Italian: 60
[1]; [21]
  Plant response rating, Ryegrass, Italian: 98
[1]; [22]
  Plant response rating, Ryegrass, Italian: 98
[1]; [23]
  Plant response rating, Ryegrass, Italian: 98
[2]; [16]
  Plant response rating, Barley, Winter: 5
[2]; [17]
  Plant response rating, Barley, Winter: 15
[2]; [18]
  Plant response rating, Barley, Winter: 40
[2]; [19]
  Plant response rating, Barley, Winter: 80
[2]; [20]
  Plant response rating, Barley, Winter: 0
[2]; [21]
  Plant response rating, Barley, Winter: 20
[2]; [22]
  Plant response rating, Barley, Winter: 50
[2]; [23]
  Plant response rating, Barley, Winter: 65
[3]; [16]
  Plant response rating, Mustard, Wild: 0
[3]; [17]
  Plant response rating, Mustard, Wild: 0
[3]; [18]
  Plant response rating, Mustard, Wild: 0
[3]; [19]
  Plant response rating, Mustard, Wild: 25
[3]; [20]
  Plant response rating, Mustard, Wild: 0
[3]; [21]
  Plant response rating, Mustard, Wild: 0
[3]; [22]
  Plant response rating, Mustard, Wild: 0
[3]; [23]
  Plant response rating, Mustard, Wild: 0
[4]; [16]
  Plant response rating, Bromegrass, Downy: 0
[4]; [17]
  Plant response rating, Bromegrass, Downy: 0
[4]; [18]
  Plant response rating, Bromegrass, Downy: 0
[4]; [19]
  Plant response rating, Bromegrass, Downy: 75
[4]; [20]
  Plant response rating, Bromegrass, Downy: 10
[4]; [21]
  Plant response rating, Bromegrass, Downy: 25
[4]; [22]
  Plant response rating, Bromegrass, Downy: 40
[4]; [23]
  Plant response rating, Bromegrass, Downy: 75
[5]; [16]
  Plant response rating, Bluegrass: 0
[5]; [17]
  Plant response rating, Bluegrass: 0
[5]; [18]
  Plant response rating, Bluegrass: 0
[5]; [19]
  Plant response rating, Bluegrass: 15
[5]; [20]
  Plant response rating, Bluegrass: 0
[5]; [21]
  Plant response rating, Bluegrass: 0
[5]; [23]
  Plant response rating, Bluegrass: 25
[6]; [16]
  Plant response rating, Oat, Wild: 100
[6]; [17]
  Plant response rating, Oat, Wild: 100
[6]; [18]
  Plant response rating, Oat, Wild: 100
[6]; [19]
  Plant response rating, Oat, Wild: 100
[6]; [20]
  Plant response rating, Oat, Wild: 35
[6]; [21]
  Plant response rating, Oat, Wild: 70
[6]; [22]
  Plant response rating, Oat, Wild: 80
[6]; [23]
  Plant response rating, Oat, Wild: 98
[7]; [16]
  Plant response rating, Canarygrass: 65
[7]; [17]
  Plant response rating, Canarygrass: 75
[7]; [18]
  Plant response rating, Canarygrass: 85
[7]; [19]
  Plant response rating, Canarygrass: 95
[7]; [20]
  Plant response rating, Canarygrass: 50
[7]; [21]
  Plant response rating, Canarygrass: 65
[7]; [22]
  Plant response rating, Canarygrass: 75
[7]; [23]
  Plant response rating, Canarygrass: 95
[8]; [16]
  Plant response rating, Wheat, Winter: 5
[8]; [17]
  Plant response rating, Wheat, Winter: 25
[8]; [18]
  Plant response rating, Wheat, Winter: 40
[8]; [19]
  Plant response rating, Wheat, Winter: 65
[8]; [20]
  Plant response rating, Wheat, Winter: 0
[8]; [21]
  Plant response rating, Wheat, Winter: 0
[8]; [22]
  Plant response rating, Wheat, Winter: 20
[8]; [23]
  Plant response rating, Wheat, Winter: 70
[9]; [16]
  Plant response rating, Blackgrass: 90
[9]; [17]
  Plant response rating, Blackgrass: 98
[9]; [18]
  Plant response rating, Blackgrass: 100
[9]; [19]
  Plant response rating, Blackgrass: 100
[9]; [20]
  Plant response rating, Blackgrass: 85
[9]; [21]
  Plant response rating, Blackgrass: 90
[9]; [22]
  Plant response rating, Blackgrass: 98
[9]; [23]
  Plant response rating, Blackgrass: 100
[10]; [16]
  Plant response rating, Windgrass: 30
[10]; [17]
  Plant response rating, Windgrass: 60
[10]; [18]
  Plant response rating, Windgrass: 60
[10]; [19]
  Plant response rating, Windgrass: 60
[10]; [21]
  Plant response rating, Windgrass: 25
[10]; [22]
  Plant response rating, Windgrass: 80
[10]; [23]
  Plant response rating, Windgrass: 100
[11]; [16]
  Plant response rating, Foxtail, Green: 90
[11]; [17]
  Plant response rating, Foxtail, Green: 95
[11]; [18]
  Plant response rating, Foxtail, Green: 98
[11]; [19]
  Plant response rating, Foxtail, Green: 98
[11]; [20]
  Plant response rating, Foxtail, Green: 75
[11]; [21]
  Plant response rating, Foxtail, Green: 100
[11]; [22]
  Plant response rating, Foxtail, Green: 100
[11]; [23]
  Plant response rating, Foxtail, Green: 100
[12]; [16]
  Plant response rating, Barley, Spring: 20
[12]; [17]
  Plant response rating, Barley, Spring: 35
[12]; [18]
  Plant response rating, Barley, Spring: 50
[12]; [19]
  Plant response rating, Barley, Spring: 90
[12]; [20]
  Plant response rating, Barley, Spring: 0
[12]; [21]
  Plant response rating, Barley, Spring: 20
[12]; [22]
  Plant response rating, Barley, Spring: 35
[12]; [23]
  Plant response rating, Barley, Spring: 60
[13]; [24]
  Plant response rating, Crabgrass, Large: 40
[13]; [25]
  Plant response rating, Crabgrass, Large: 90
[13]; [26]
  Plant response rating, Crabgrass, Large: 10
[13]; [27]
  Plant response rating, Crabgrass, Large: 90
[14]; [24]
  Plant response rating, Velvetleaf: 0
[14]; [25]
  Plant response rating, Velvetleaf: 0
[14]; [26]
  Plant response rating, Velvetleaf: 0
[14]; [27]
  Plant response rating, Velvetleaf: 0
[15]; [24]
  Plant response rating, Foxtail, Giant: 80
[15]; [25]
  Plant response rating, Foxtail, Giant: 100
[15]; [26]
  Plant response rating, Foxtail, Giant: 90
[15]; [27]
  Plant response rating, Foxtail, Giant: 100
